US20120088791A1, “AMIDOBIPIPERIDINECARBOXYLATE M1 ALLOSTERIC AGONISTS, ANALOGS AND DERIVATIVES THEREOF, AND METHODS OF MAKING AND USING SAME” (VANDERBILT UNIVERSITY, priority 2009, published 2012)
Like-named read-outs stand apart in the source and are kept apart here.

Target: T1, rM1 (Rattus norvegicus, UniProt P08482)
T1 construct: host or cells: CHO-K1
T1 sequence (P08482 1-460): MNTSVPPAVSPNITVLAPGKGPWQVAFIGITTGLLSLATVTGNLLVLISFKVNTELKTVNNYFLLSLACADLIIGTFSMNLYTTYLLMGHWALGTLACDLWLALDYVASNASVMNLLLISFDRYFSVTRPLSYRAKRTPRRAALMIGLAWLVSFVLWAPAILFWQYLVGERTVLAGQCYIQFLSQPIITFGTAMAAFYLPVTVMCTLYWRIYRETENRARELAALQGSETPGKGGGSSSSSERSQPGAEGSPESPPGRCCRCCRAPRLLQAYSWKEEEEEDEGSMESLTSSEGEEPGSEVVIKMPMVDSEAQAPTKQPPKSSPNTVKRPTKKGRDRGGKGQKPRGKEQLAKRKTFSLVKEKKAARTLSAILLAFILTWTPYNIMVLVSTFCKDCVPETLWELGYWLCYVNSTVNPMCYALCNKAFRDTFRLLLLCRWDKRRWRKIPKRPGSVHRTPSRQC
Experiment: Calcium mobilization assay, CHO-K1 cells stably expressing rM1
Format: cell-based
Conditions: for Emax: RM1, read-out: Efficacy (% Max ACh); for EC50: read-out: Potency (EC50)
From the text: Cell culture and transfections. Chinese hamster ovary (CHO-K1) cells stably expressing rat (r)M1 were purchased from the American Type Culture Collection and cultured according to their indicated protocol. CHO cells stably expressing human (h)M2, hM3, and hM5 were used and described previously (Levey et al., 1991); rM4 cDNA, provided by T. I. Bonner (National Institutes of Health, Bethesda, Md.), was used to stably transfect CHO-K1 cells purchased from the American Type Culture Collection using Lipofectamine2000. To make stable hM2 and rM4 cell lines for use in calcium mobilization assays, these cells also were stably transfected with a chimeric G-protein (Gqi5) using Lipofectamine 2000. M1, hM3, and hM5 cells were grown in Ham's F-12 medium containing 10% heat-inactivated fetal bovine serum (FBS), 20 mM HEPES, and 50 μg/ml G418 sulfate. hM2-Gqi5 cells were grown in the same medium also containing 500 μg/ml Hygromycin B. Stable rM4-Gqi5 cells were grown in DMEM containing 10% heat-inactivated FBS, 20 mM HEPES, 400 μg/ml G418 sulfate, and 500 μg/ml Hygromycin B. The rat M1 Y381A orthosteric mutant receptor cDNA was generated using the Quik-Change site-directed mutagenesis kit (Stratagene) and verified by sequencing. CHO-K1 cells were stably transfected with this cDNA using Lipofectamine2000 and screened for expression based on calcium mobilization in response to the allosteric M1 agonist N-desmethylclozapine.
Calcium mobilization assays. For measurement of agonist-evoked increases in intracellular calcium, CHO-K1 cells stably expressing muscarinic receptors were plated in 100 μl of growth medium at 5×10^4 (rM1, hM3, and hM5) or 6×10^4 cells per well (rM1 Y381A, hM2, and rM4) in Costar 96-well black-walled, tissue culture (TC)-treated, clear-bottom plates (Fisher). Cells were incubated overnight at 37° C. and 5% CO2. The next day, medium was removed from the cells, and they were incubated with 50 μl of 2 μM Fluo-4 AM diluted in assay buffer [HBSS (Invitrogen) supplemented with 20 mM HEPES and 2.5 mM probenecid, pH 7.4] for 1 h at 37° C. Dye was removed and replaced with 45 μl of assay buffer. Agonists were diluted into assay buffer at a 2× concentration and applied to cells using the automated system at 19 s into the 130 s protocol. Calcium flux was measured over time as an increase in fluorescence (fold over basal) using the Flexstation plate reader (Molecular Devices).

[1] = Table 1, R-enantiomers, agonist-evoked calcium flux

Structure (SMILES)	Emax (Table 1, R-enantiomers)	EC50 [1]	EC50 (Table 2, S-enantiomers)
CCOC(=O)N1CCC(N2CCC[C@@H](NC(=O)c3ccccc3Cl)C2)CC1 [(R)-ethyl 3-(2-chlorobenzamido)-1,4′-bipiperidine-1′-carboxylate]	57%	2600 nM	
CCOC(=O)N1CCC(N2CCC[C@@H](NC(=O)c3ccc(F)c(F)c3)C2)CC1 [(R)-ethyl 3-(3,4-difluorobenzamido)-1,4′-bipiperidine-1′-carboxylate]	84%	309 nM	
CCOC(=O)N1CCC(N2CCC[C@@H](NC(=O)c3cccc(F)c3)C2)CC1 [(R)-ethyl 3-(3-fluorobenzamido)-1,4′-bipiperidine-1′-carboxylate]	92%	144 nM	
CCOC(=O)N1CCC(N2CCC[C@@H](NC(=O)c3cccc(OC)c3)C2)CC1 [(R)-ethyl 3-(3-methoxybenzamido)-1,4′-bipiperidine-1′-carboxylate]	91%	245 nM	
CCOC(=O)N1CCC(N2CCC[C@@H](NC(=O)c3ccc(F)cc3C)C2)CC1 [(R)-ethyl 3-(4-fluoro-2-methylbenzamido)-1,4′-bipiperidine-1′-carboxylate]	77%	59 nM	
CCOC(=O)N1CCC(N2CCC[C@@H](NC(=O)c3ccc(OC)cc3)C2)CC1 [(R)-ethyl 3-(4-methoxybenzamido)-1,4′-bipiperidine-1′-carboxylate]	63%	963 nM	
CCOC(=O)N1CCC(N2CCC[C@@H](NC(=O)c3ccc(C)cc3)C2)CC1 [(R)-ethyl 3-(4-methylbenzamido)-1,4′-bipiperidine-1′-carboxylate]	14%	819 nM	
CCOC(=O)N1CCC(N2CCC[C@@H](NC(=O)C3CCCCC3)C2)CC1 [(R)-ethyl 3-(cyclohexanecarboxamido)-1,4′-bipiperidine-1′-carboxylate]	44%	685 nM	
CCOC(=O)N1CCC(N2CCC[C@@H](NC(=O)C3CCCC3)C2)CC1 [(R)-ethyl 3-(cyclopentanecarboxamido)-1,4′-bipiperidine-1′-carboxylate]	35%	5300 nM	
CCOC(=O)N1CCC(N2CCC[C@@H](NC(=O)c3cccs3)C2)CC1 [(R)-ethyl 3-(thiophene-2-carboxamido)-1,4′-bipiperidine-1′-carboxylate]	61%	1300 nM	
CCOC(=O)N1CCC(N2CCC[C@H](NC(=O)c3ccccc3Cl)C2)CC1 [(S)-ethyl 3-(2-chlorobenzamido)-1,4′-bipiperidine-1′-carboxylate]			> 10000 nM
CCOC(=O)N1CCC(N2CCC[C@H](NC(=O)c3ccccc3C)C2)CC1 [(S)-ethyl 3-(2-methylbenzamido)-1,4′-bipiperidine-1′-carboxylate]			> 10000 nM
CCOC(=O)N1CCC(N2CCC[C@H](NC(=O)c3ccc(F)c(F)c3)C2)CC1 [(S)-ethyl 3-(3,4-difluorobenzarnido)-1,4′-bipiperidine-1′-carboxylate]			> 10000 nM
CCOC(=O)N1CCC(N2CCC[C@H](NC(=O)c3cccc(F)c3)C2)CC1 [(S)-ethyl 3-(3-fluorobenzamido)-1,4′-bipiperidine-1′-carboxylate]			> 10000 nM
CCOC(=O)N1CCC(N2CCC[C@H](NC(=O)c3cccc(OC)c3)C2)CC1 [(S)-ethyl 3-(3-methoxybenzamido)-1,4′-bipiperidine-1′-carboxylate]			> 10000 nM
CCOC(=O)N1CCC(N2CCC[C@H](NC(=O)c3ccc(F)cc3C)C2)CC1 [(S)-ethyl 3-(4-fluoro-2-methylbenzamido)-1,4′-bipiperidine-1′-carboxylate]			> 10000 nM
CCOC(=O)N1CCC(N2CCC[C@H](NC(=O)c3ccc(OC)cc3)C2)CC1 [(S)-ethyl 3-(4-methoxybenzamido)-1,4′-bipiperidine-1′-carboxylate]			> 10000 nM
CCOC(=O)N1CCC(N2CCC[C@H](NC(=O)c3ccc(C)cc3)C2)CC1 [(S)-ethyl 3-(4-methylbenzamido)-1,4′-bipiperidine-1′-carboxylate]			> 10000 nM
CCOC(=O)N1CCC(N2CCC[C@H](NC(=O)C3CCCCC3)C2)CC1 [(S)-ethyl 3-(cyclohexanecarboxamido)-1,4′-bipiperidine-1′-carboxylate]			> 10000 nM
CCOC(=O)N1CCC(N2CCC[C@H](NC(=O)C3CCCC3)C2)CC1 [(S)-ethyl 3-(cyclopentanecarboxamido)-1,4′-bipiperidine-1′-carboxylate]			> 10000 nM
CCOC(=O)N1CCC(N2CCC[C@H](NC(=O)c3cccs3)C2)CC1 [(S)-ethyl 3-(thiophene-2-carboxamido)-1,4′-bipiperidine-1′-carboxylate]			> 10000 nM
CCOC(=O)N1CCC(N2CCC[C@H](NC(=O)c3ccccc3)C2)CC1 [(S)-ethyl 3-benzamido-1,4′-bipiperidine-1′-carboxylate]			> 10000 nM
